The record followed here is PMC9820738, “Spectrofluorimetric and Computational Investigation of New Phthalimide Derivatives towards Human Neutrophil Elastase Inhibition and Antiproliferative Activity” (International Journal of Molecular Sciences, 2022).

Like-named read-outs stand apart in the source and are kept apart here.

Data set [1] has as its system A549 lung carcinoma cells. Put plainly: In vitro antiproliferative assay, A549. It is filed as cell-based, human. The conditions noted are these: for IC50: A549, read-out: IC50 ± SD, antiproliferative activity; for SI BALB/3T3/ A549: IC50 in normal cell line / IC50 in cancer cell line. As to the method: (§1) Cell preparation, in vitro antiproliferative assay, MTT and SRB cytotoxic tests were performed according to literature.

For data set [2], the system named is UMUC-3 human bladder transitional cell carcinoma cells. Briefly: In vitro antiproliferative assay, UMUC-3. It is filed as cell-based. The conditions noted are these: for IC50: UMUC-3, read-out: IC50 ± SD, antiproliferative activity; for SI BALB/3T3/ UMUC-3: IC50 in normal cell line / IC50 in cancer cell line. As to the method:
as §1

Data set [3] relates to BALB/3T3 normal mouse fibroblast cells. Put plainly: In vitro cytotoxicity on normal fibroblasts, BALB/3T3. To be noted: BALB/3T3 normal mouse fibroblasts; read-out: IC50 ± SD, antiproliferative activity. The class given is cell-based. On the procedure:
as §1

Data set [4] concerns MV4-11 human biphenotypic B myelomonocytic leukemia cells. Put plainly: In vitro antiproliferative assay, MV4-11. The class given is cell-based. The conditions noted are these: for IC50: MV4-11, read-out: IC50 ± SD, antiproliferative activity; for SI BALB/3T3/ MV4-11: IC50 in normal cell line / IC50 in cancer cell line. As to the method:
as §1

In data set [5] the target is T1, human neutrophil elastase (HNE) (Homo sapiens, UniProt P08246).
T1 sequence (P08246 30-267): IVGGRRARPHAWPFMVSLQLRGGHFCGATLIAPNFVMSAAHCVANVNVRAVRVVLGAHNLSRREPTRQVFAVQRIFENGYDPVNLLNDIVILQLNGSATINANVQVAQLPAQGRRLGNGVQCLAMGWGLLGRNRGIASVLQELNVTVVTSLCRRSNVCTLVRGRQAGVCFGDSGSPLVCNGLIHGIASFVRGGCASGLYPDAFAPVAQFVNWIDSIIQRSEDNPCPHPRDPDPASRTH
Put plainly: Fluorometric human neutrophil elastase (HNE) inhibition assay, MOSuc-AAPV-AMC substrate. The class given is biochemical. To be noted: HNE 20 mU/mL, 25 µM substrate, 0.1 M HEPES pH 7.5, 25 °C, triplicate; read-out: IC50 ± SD, elastase inhibitory activity. On the procedure:
Fluorometric assay for human neutrophil elastase (HNE) inhibition was performed according to the previously presented method with some modifications, using N-methoxysuccinyl-Ala-Ala-Pro-Val-7-amido-4-methyl-coumarin (MOSuc-AAPV-AMC, Calbiochem) as substrate. […] The reaction was carried out in assay buffer containing 0.1 M HEPES (pH 7.5). Briefly, different concentration of tested compounds was incubated with 20 mU/mL of HNE (Bradford) in 25 °C. The reaction was started by addition of 25 µM elastase substrate to final reaction volume 100 µL and monitored for 30 min at 25 °C on a microplate reader (FP-8500 Spectrofluorometer, JASCO, USA) with excitation and emission wavelengths of 380 nm and 440 nm, respectively. By computing the log of inhibitors concentrations versus the percentage of activity, the IC50 values were determined by non-linear regression analysis. Assays were performed in triplicate and data presented as the mean and the standard deviation. Ursolic acid was used as the reference compound.

The test system of data set [6] is MDA-MB-231 human breast adenocarcinoma cells. Briefly: In vitro antiproliferative assay, MDA-MB-231. The class given is cell-based. The conditions noted are these: for IC50: MDA-MB-231, read-out: IC50 ± SD, antiproliferative activity; for SI BALB/3T3/ MDA-MB-231: IC50 in normal cell line / IC50 in cancer cell line. As to the method:
as §1

A short description of data set [7]: Spontaneous hydrolysis (chemical stability) in phosphate buffer, spectrophotometric. The conditions noted are these: 0.05 M phosphate buffer pH 7.3, 25 °C, λ 305 nm. It is filed as physicochemical. On the procedure: Spontaneous compound hydrolysis studies were performed following the literature procedure. The kinetics hydrolysis of the compounds was evaluated at 25 °C in 0.05 M phosphate buffer, pH 7.3, by measuring changes in absorbance spectra during incubation using a T60U spectrophotometer (PG Instruments). The absorbance (At) at characteristic absorption maxima for each compound was measured at 10 min intervals until there was no further decrease in absorbance (Aꝏ). Using these measurements, semilogarithmic plots of the dependence of log(At–Aꝏ) on time were prepared, and k’ values were determined from the slope of these plots according to the first order reaction kinetics. Half-conversion times were calculated using equation: t1/2 = 0.693/k’.

In data set [8] the target is T1, human neutrophil elastase (HNE). Briefly: Kinetic analysis of the inhibition of elastase (Lineweaver–Burk, secondary plots). It is filed as biochemical. As to the method:
Kinetic studies were conducted in the presence of different concentrations of substrate (5, 25, 50 and 100 µM) and test compound (in the range of 0–10 µM). The reaction conditions were the same as in the HNE inhibition assay and the reaction was monitored for 10 min at 25 °C with the same Ex an Em wavelengths. By Lineweaver–Burk plots, kinetic values such as Michaelis–Menten constants and maximum velocity were determined. Next, two inhibition constants for inhibitor binding with free enzyme or enzyme–substrate complex (Ki and Kis) were obtained by plotting the secondary plot of the slopes of the determined straight lines or vertical intercept versus inhibitor concentration.

By IC50 is commonly meant the concentration that inhibits the measured activity by half. Turning to `Cc1cc(C)cc(Nc2nc(CCN3C(=O)c4ccccc4C3=O)cs2)c1` [Compound 4f, 2-(2-(2-(3,5-Dimethylphenylamino)thiazol-4-yl)ethyl)isoindoline-1,3-dione], the IC50 was 25.6 ± 3.63 µM in data set [1] (Homo sapiens); 66.5 ± 9.8 µM in data set [2] (Homo sapiens, UMUC3); 101 ± 12.2 µM in data set [3]; 13.2 ± 4.77 µM in data set [4] (Homo sapiens); 49.9 ± 0.98 µM in data set [5]; 86.4 ± 12.2 µM in data set [6] (Homo sapiens).
`C[C@H]1[C@H](C)CC[C@]2(C(=O)O)CC[C@]3(C)C(=CC[C@@H]4[C@@]5(C)CC[C@H](O)C(C)(C)[C@@H]5CC[C@]43C)[C@H]12` [Ursolic acid, reference compound]: the concentration for half-maximal inhibition (IC50) in data set [5] came to 5.32 ± 0.68 µM.
The melting point is the temperature of the solid-liquid transition. `O=C1c2ccccc2C(=O)N1CCc1csc(Nc2cccc3ccccc23)n1` [Compound 4e, 2-(2-(2-(Naphthalen-1-ylamino)thiazol-4-yl)ethyl)isoindoline-1,3-dione] showed a melting point of 161 to 162 °C. In addition, the IC50 in [1] (Homo sapiens) worked out at 41.1 ± 3.13 µM. In addition, the “SI BALB/3T3/ A549” value in data set [1] was 2.50. Besides, in data set [2] (Homo sapiens, UMUC3), the IC50 was determined as 80 ± 16.2 µM. Besides, in data set [2], the “SI BALB/3T3/ UMUC-3” value is reported as 1.28. Further, the IC50 in data set [3] is 103 ± 30.7 µM. Moreover, the IC50 in data set [4] (Homo sapiens) was determined as 33.2 ± 12 µM. Besides, the “SI BALB/3T3/ MV4-11” value in data set [4] is 3.09. The half-maximal inhibitory concentration (IC50) in data set [5] worked out at 15.6 ± 0.16 µM. Besides, the IC50 in [6] (Homo sapiens) came out at 76.4 ± 11.1 µM. In [6], the “SI BALB/3T3/ MDA-MB-231” value was 1.34.
Take `NS(=O)(=O)c1ccc(Nc2nc(CCN3C(=O)c4ccccc4C3=O)cs2)cc1` [Compound 4g, 4-(4-(2-(1,3-Dioxoisoindolin-2-yl)ethyl)thiazol-2-ylamino)benzenesulfonamide]: the melting point is over 260 °C. In addition, the IC50 in data set [2] (Homo sapiens, UMUC3) came out at 19.8 ± 1.4 µM. The “SI BALB/3T3/ UMUC-3” value in data set [2] is given as 0.72. In addition, in [3], the IC50 turned out to be 14.3 ± 2.1 µM. Also, the IC50 in [4] (Homo sapiens) is 83.3 ± 26.6 µM. Also, the “SI BALB/3T3/ MV4-11” value in data set [4] was 0.17. For the same compound, in [5], the IC50 is 64.9 ± 7.75 µM. In [6] (Homo sapiens), the IC50 came out at 9.66 ± 1.4 µM. Besides, the “SI BALB/3T3/ MDA-MB-231” value in data set [6] was 1.49.
A word on the Ki: it is a dissociation constant, usually derived from enzyme kinetics or from competition with a known ligand. A low value points to a stronger hold on the target. `O=C1c2ccccc2C(=O)N1CCc1csc(Nc2ccc(C(F)(F)F)cc2)n1` [Compound 4c, 2-(2-(2-(4-(Trifluoromethyl)phenylamino)thiazol-4-yl)ethyl)isoindoline-1,3-dione] yielded a melting point of 170 to 172 °C. Besides, in data set [1] (Homo sapiens), the IC50 is 14 ± 1.56 µM. The “SI BALB/3T3/ A549” value in data set [1] is given as 6.07. Besides, the half-inhibitory concentration (IC50) in data set [2] (Homo sapiens, UMUC3) was 75.2 ± 6.71 µM. Further, the “SI BALB/3T3/ UMUC-3” value in data set [2] is listed as 1.13. In addition, the “k, rate constant of spontaneous hydrolysis” value in data set [7] came to 0.018 min⁻¹. Moreover, in [7] (read-out: t1/2, half-life for the spontaneous hydrolysis), the half-life came to 38.5 min. Moreover, the IC50 in [3] came out at 84.9 ± 18.2 µM. Besides, in data set [8] (Lineweaver–Burk and Dixon analysis), the “Inhibition Type” value is “mixed type I inhibition”. This compound came in with a Ki in data set [8] (inhibitor binding with free enzyme, secondary plot) of 4.54 µM. Besides, in data set [4] (Homo sapiens), the concentration for half-maximal inhibition (IC50) was determined as 46.6 ± 25.4 µM. Also, the “SI BALB/3T3/ MV4-11” value in [4] amounted to 1.82. Moreover, in data set [5], the IC50 turned out to be 13 µM. In addition, in data set [6] (Homo sapiens), the IC50 came out at 77.5 ± 13.7 µM. Further, in data set [6], the “SI BALB/3T3/ MDA-MB-231” value is listed as 1.10.
For `O=C1c2ccccc2C(=O)N1CCc1csc(Nc2c(Cl)cc(Cl)cc2Cl)n1` [Compound 4h, 2-(2-(2-(2,4,6-Trichlorophenylamino)thiazol-4-yl)ethyl)isoindoline-1,3-dione], the melting point lay within 168 to 169 °C. Besides, the IC50 in data set [1] (Homo sapiens) was 57.1 ± 19.4 µM. Also, the IC50 in data set [2] (Homo sapiens, UMUC3) came out at 120 ± 36 µM. Besides, the IC50 in data set [4] (Homo sapiens) was 48.5 ± 21.4 µM. Further, the IC50 in data set [5] was 16.6 ± 2.06 µM.
In the case of `CC(=O)c1ccc(Nc2nc(CCN3C(=O)c4ccccc4C3=O)cs2)cc1` [Compound 4i, 2-(2-(2-(4-Acetylphenylamino)thiazol-4-yl)ethyl)isoindoline-1,3-dione], the IC50 is 62.9 ± 5.75 µM in [1] (Homo sapiens); 74.1 ± 12 µM in [2] (Homo sapiens, UMUC3); 99 ± 21.2 µM in data set [3]; 44.5 ± 20.2 µM in [4] (Homo sapiens); 25.6 ± 1.78 µM in data set [5]; 87.7 ± 22 µM in data set [6] (Homo sapiens).
As for `N.N.[Cl][Pt][Cl]` [cisplatin, reference compound], the IC50 turned out to be 5.41 ± 0.6 µM in data set [1]; 1.73 ± 0.17 µM in [2]; 8.47 ± 1.96 µM in data set [3]; 1.43 ± 0.4 µM in data set [4]; 15.6 ± 2 µM in data set [6].
As to `COc1cc(Nc2nc(CCN3C(=O)c4ccccc4C3=O)cs2)cc(OC)c1OC` [Compound 4d, 2-(2-(2-(3,4,5-Trimethoxyphenylamino)thiazol-4-yl)ethyl)isoindoline-1,3-dione], the IC50 came out at 23.7 ± 5.23 µM in [1] (Homo sapiens); 46.1 ± 7.28 µM in data set [2] (Homo sapiens, UMUC3); 46.8 ± 2.05 µM in [3]; 8.21 ± 2.37 µM in [4] (Homo sapiens); 22.9 ± 1.59 µM in data set [5]; 48.9 ± 13.2 µM in data set [6] (Homo sapiens).
Turning to `O=C1c2ccccc2C(=O)N1CCc1csc(Nc2ccc(F)cc2)n1` [Compound 4a, 2-(2-(2-(4-Fluorophenylamino)thiazol-4-yl)ethyl)isoindoline-1,3-dione], the IC50 in data set [1] (Homo sapiens) is 50.7 ± 3.32 µM; in data set [2] (Homo sapiens, UMUC3), 82.3 ± 2.18 µM; in data set [3], 74.2 ± 12.2 µM; in data set [4] (Homo sapiens) it was 59.6 ± 4.63 µM; in data set [5], 29.4 ± 3.13 µM; in data set [6] (Homo sapiens) it was 110 ± 24.5 µM.
`O=C1c2ccccc2C(=O)N1CCc1csc(Nc2ccc(Cl)cc2)n1` [Compound 4b, 2-(2-(2-(4-Chlorophenylamino)thiazol-4-yl)ethyl)isoindoline-1,3-dione]: the IC50 amounted to 18.1 ± 0.94 µM in data set [1] (Homo sapiens); 61.7 ± 1.56 µM in [2] (Homo sapiens, UMUC3); 66.2 ± 4.17 µM in data set [3]; 12.2 ± 4.56 µM in [4] (Homo sapiens); 46.5 ± 4.85 µM in data set [5]; 86.5 ± 10.7 µM in data set [6] (Homo sapiens).
